Data set [1] deals with carmine mites resistant to Kelthane. As to the kind of experiment: Miticidal effect on carmine mite resistant to Kelthane (sprayed egg plant seedling). The conditions noted are these: 500 ppm; for Number of Living Mites after Application 7th Day / Number of Living Mites after Application 14th Day / Number of Living Mites after Application 21st Day / Number of Living Mites after Application 28th Day: egg plant seedling; for Control Effect (%): from mite counts on 7th, 14th, 21st and 28th day. In kind it is in vivo, Tetranychus cinnabarius. As for the experimental part:
(§1) (A) An emulsifiable concentrate prepared as described in Formulation Example 1 and diluted to a predetermined concentration was sprayed using a spray-gun on a seedling of an egg plant placed in a pot of 12 cm in diametre to which plant carmine mites resistant to Kelthane were parasitic. After drying in air, seedlings were kept in a green house, and the number of living insects was recorded on the 7th, 14th, 21 st and 28th day from the day of application to determine the control effects. Three pots were used for each treatment. The control effect was assessed by the formula described in TEST EXAMPLE 7 above. Further, phytotoxicity was observed visually on the 7th day after the application.
as §1, with “(B) An” for “(A) An”, “Example 3” for “Example 1”, “in diameter” for “in diametre”, “in Test” for “in TEST”

For the next data set, the system named is egg plant. As to the kind of experiment: Phytotoxicity observed visually in the mite test on egg plant. The data set is classed as in vivo. The arrangement: key: —: None; +: Slightly toxic; ++: Toxic; +++: Strongly toxic. The conditions noted are these: 500 ppm, observed visually on the 7th day after the application. As to the method:
as §1
as §1, with “(B) An” for “(A) An”, “Example 3” for “Example 1”, “in diameter” for “in diametre”, “in Test” for “in TEST”

A further data set has as its system rice stem borer. Description: Insecticidal effect on rice stem borer, 3rd-instar larvae (rice seedling dip). The data set is classed as in vivo, Chilo suppressalis. The conditions noted are these: after 72 hours, 25°C. Put shortly:
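Wettable-powder formulations were diluted in water to set concentrations, and rice seedlings were dipped in them. Ten 3rd-instar larvae were placed per capped cup with the treated seedlings and held at 25°C.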

The next data set concerns smaller tea tortrix. Description: Insecticidal effect on smaller tea tortrix (apple leaf dip). The data set is classed as in vivo. The conditions noted are these: Adoxophyes orana, foliar; Table 9; 100 ppm; after 72 hours, 25°C; wettable powder as Formulation Example 5; read-out: Percent Mortality.
In another data set the test system is diamond back moth. Description: Insecticidal effect on diamond-back moth (cabbage leaf dip). In kind it is in vivo, Plutella xylostella. The conditions noted are these: 100 ppm, after 72 hours, 25°C. The essentials:
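Cabbage leaves dipped 10 s in water-diluted emulsifiable concentrate at set concentration, air-dried; thirty 3rd-instar diamond-back moth larvae per cup held at 25°C. Percent mortality scored after 72 h, three replicates per treatment.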

Where [2] appears, read: Table 13, Formulation Example 1.
The mark [3] stands for this setting: Table 1, 500 ppm, wettable powder as Formulation Example 5.
The mark [4] stands for this setting: Table 7, emulsifiable concentrate as Formulation Example 1.
[5] abbreviates: Table 14, Formulation Example 3.

Data on five compounds can be found in patent EP0054589B1, “Organic phosphoric acid ester derivatives, a process for preparing the same and insecticidal, miticidal or nematocidal compositions containing the same” (priority 1980, dated 1982).

Usually mortality stands for the share of the test organisms that died. Turning to `CCCSP(=O)(OC)Oc1ccc2c(c1)OC(C)=CC2(C)C` (centres unmarked) [Compound No. 1], in data set [1] (setting [2]), the “Number of Living Mites after Application 7th Day” value came to 0, the “Number of Living Mites after Application 14th Day” value was determined as 0, the “Number of Living Mites after Application 21st Day” value is reported as 5 and the “Number of Living Mites after Application 28th Day” value came out at 11. Further, the “Control Effect (%)” value in data set [1] (Table 13) worked out at 99.0%. Also, the Phytotoxicit entry with egg plant (Table 13) is on record as “—”. Also, in the data set with rice stem borer (setting [3]), the “Percent Mortality (%)” value worked out at 100%. For the same compound, the mortality at 100 ppm in the data set on smaller tea tortrix turned out to be 100%. For the same compound, in the data set with diamond back moth (setting [4]), the “Percent Mortality (%)” value is recorded as 100%.
Turning to `CCCSP(=O)(OCC)Oc1ccc2c(c1)OC(C)=CC2(C)C` (centres unmarked) [Compound No. 2, O-ethyl-S-propyl-O-(2,4,4-trimethyl-1,4-benzopyran-7-yl)phosphorothioate], in data set [1] (setting [2]), the “Number of Living Mites after Application 7th Day” value is on record as 0, the “Number of Living Mites after Application 14th Day” value came out at 0, the “Number of Living Mites after Application 21st Day” value is reported as 7 and the “Number of Living Mites after Application 28th Day” value came out at 10. Moreover, in data set [1] (Table 13), the “Control Effect (%)” value is on record as 99.1%. Besides, in the data set with egg plant (Table 13), the Phytotoxicit entry is “—”. Also, the “Percent Mortality (%)” value with rice stem borer (setting [3]) stood at 100%. Also, the mortality at 100 ppm in the data set on smaller tea tortrix amounted to 100%. Further, the “Percent Mortality (%)” value in the data set on diamond back moth (setting [4]) is recorded as 100%.
Consider `CCCSP(=S)(OC)Oc1ccc2c(c1)OC(C)=CC2(C)C` (centres unmarked) [Compound No. 9, 0-methyl-S-propyl-(2,4,4-trimethyl-1,4-benzopyran-7-yl)phosphorodithioate], for which, in data set [1] (setting [2]), the “Number of Living Mites after Application 7th Day” value was 0, the “Number of Living Mites after Application 14th Day” value stood at 0, the “Number of Living Mites after Application 21st Day” value was 0 and the “Number of Living Mites after Application 28th Day” value was found to be 0. In addition, in data set [1] (Table 13), the “Control Effect (%)” value worked out at 100%. Moreover, the Phytotoxicit entry in the data set on egg plant (Table 13) was “—”. In addition, in the data set on rice stem borer (setting [3]), the “Percent Mortality (%)” value stood at 100%. In the data set with smaller tea tortrix, the mortality at 100 ppm turned out to be 100%. In the data set with diamond back moth (setting [4]), the “Percent Mortality (%)” value is given as 100%.
With `CCCSP(=S)(OCC)Oc1ccc2c(c1)OC(C)=CC2(C)C` (centres unmarked) [Compound No. 10], the “Number of Living Mites after Application 7th Day” value in data set [1] (setting [2]) and in data set [1] (setting [5]) was 0 in each case. The “Number of Living Mites after Application 14th Day” value in data set [1] (setting [2]) and in data set [1] (setting [5]) was 0 throughout. Moreover, the entries for the “Number of Living Mites after Application 21st Day” value in data set [1] (setting [2]) and in data set [1] (setting [5]) were 4 and 0, respectively. The results for the “Number of Living Mites after Application 28th Day” value in data set [1] (setting [2]) and in data set [1] (setting [5]) were 16 and 12, respectively. Further, the “Control Effect (%)” value in data set [1] (Table 13) was found to be 99.0%; in data set [1] (Table 14) it was 98.7%. The Phytotoxicit result with egg plant (Table 13) and in the data set on egg plant (Table 14) was “—” in each case. In addition, the “Percent Mortality (%)” value in the data set with rice stem borer (setting [3]) and with diamond back moth (setting [4]) was 100% throughout. Also, the mortality at 100 ppm in the data set with smaller tea tortrix was found to be 96.7%.
As to `CCCSP(=O)(OCC)Oc1ccc2c(c1)OC(C)(C)C=C2C` (centres unmarked) [Compound No. 20, O-ethyl-S-propyl-0-(2,2,4-trimethyl-1,2-benzopyran-7-yl)phosphorothioate], the “Percent Mortality (%)” value came to 100% in the data set on rice stem borer (Table 1, 100 ppm, wettable powder as Formulation Example 5); 100% in the data set with rice stem borer (setting [3]); 100% with rice stem borer (Table 2, 100 ppm, wettable powder as Formulation Example 7); 100% in the data set with diamond back moth (setting [4]); 100% in the data set with diamond back moth (Table 8, emulsifiable concentrate as Formulation Example 4).
